The values below come from patent US10844013B2, “Phenyl amino piperidine mTORC inhibitors and uses thereof” (Navitor Pharmaceuticals, Inc., priority 2016, dated 2020).

Structures are written as SMILES.

For experiment [1], the system named is pS6K1 (p-p70 S6 Kinase (Thr389)) in MCF-7 cells. The experiment can be described thus: AlphaLISA Ultra pS6K1 assay. It counts as cell-based. The following applies: Homo sapiens, MCF7, 2 h, 2 hours compound incubation. The gist of the method:
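MCF-7 cells seeded 20–24 h, medium refreshed 2 h, then treated 2 h with compound (0.5% DMSO final). Lysates probed for Thr389-phosphorylated p70 S6K by AlphaLISA Ultra, 2 h acceptor then 2 h donor bead incubation, read on a multimode reader.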
On the technique in general: Alpha assays give light when donor and acceptor beads are brought close together.

The subject of experiment [2] is pAKT (p-Akt 1/2/3 (Ser473)) in MCF-7 cells. Description: AlphaLISA Ultra pAKT assay. Format: cell-based. The following applies: Homo sapiens, MCF7, 2 hours compound incubation. The gist of the method:
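AlphaLISA read-out (2 h acceptor-bead, then 2 h donor-bead incubation) on thawed lysates of MCF-7 cells exposed to compounds for 2 h in 0.5% DMSO. Cells had been plated 20-24 h and given fresh medium 2 h before dosing.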

One may read the IC50 as the point on the concentration scale where inhibition reaches its midpoint. As to `Cc1cc(C)c(C(=O)N2CC(=O)N(c3ccc(F)c(F)c3)[C@H](CO)C2)c(C)c1NC1CCN(c2ccccc2C#N)CC1` [I-136, 2-[4-({3-[(3S)-4-(3,4-difluoro-phenyl)-3-(hydroxy-methyl)-5-oxopiperazine-1-carbonyl]-2,4,6-trimethyl-phenyl}amino)piperidin-1-yl]benzonitrile], the values for the IC50 in experiment [1] and in experiment [2] were 10 to 1000 nM and > 10000 nM, respectively.

In the case of `Cc1cc(C)c(C(=O)N2CCN(c3ccccc3)[C@H](CN)C2)c(C)c1NC1CCN(c2ccccc2C#N)CC1` [I-137, 2-[4-({3-[(3R)-3-(Aminomethyl)-4-phenylpiperazine-1-carbonyl]-2,4,6-trimethylphenyl}amino)piperidin-1-yl]benzonitrile], the IC50 in experiment [1] is 10 to 1000 nM; in experiment [2] it was > 10000 nM.

With `Cc1cc(C)c(C(=O)N2CCN(c3ccccc3)C(C(N)=O)C2)c(C)c1NC1CCN(c2ccccc2C#N)CC1` (centres unmarked) [I-139, 4-(3-{[1-(2-cyanophenyl)piperidin-4-yl]amino}-2,4,6-trimethyl-benzoyl)-1-phenyl-piperazine-2-carboxamide], the IC50 is 10 to 1000 nM in experiment [1] and > 10000 nM in experiment [2].

As to `Cc1cc(C)c(C(=O)N2CCN(c3cccnn3)[C@H](CO)C2)c(C)c1NC1CCN(c2ccccc2C#N)CC1` [I-140, 2-[4-({3-[(3S)-3-(hydroxy-methyl)-4-(pyridazin-3-yl)piperazine-1-carbonyl]-2,4,6-trimethyl-phenyl}amino)piperidin-1-yl] benzonitrile], the IC50 in experiment [1] is 10 to 1000 nM; in experiment [2] it was > 10000 nM.

Consider `Cc1cc(C)c(C(=O)N2CCN(c3ccccc3)C(C(N)=O)C2)c(C)c1NC1CCN(c2ccc(F)cc2C#N)CC1` (centres unmarked) [I-142, 4-(3-{[1-(2-cyano-4-fluorophenyl)piperidin-4-yl]amino}-2,4,6-trimethyl-benzoyl)-1-phenyl-piperazine-2-carboxamide], for which the IC50 was 10 to 1000 nM in experiment [1] and > 10000 nM in experiment [2].

On to `Cc1cc(C)c(C(=O)N2CCN(c3ccccn3)C(=O)C2)c(C)c1NC1CCN(c2ccc(F)cc2C#N)CC1` [I-143, 5-fluoro-2-[4-({2,4,6-trimethyl-3-[3-oxo-4-(pyridin-2-yl)piperazine-1-carbonyl]phenyl}amino)piperidin-1-yl] benzonitrile], for which the values for the IC50 in experiment [1] and in experiment [2] were 10 to 1000 nM and > 10000 nM, respectively.

`Cc1cc(C)c(C(=O)N2CCN(c3ccc(F)cc3)C(C(N)=O)C2)c(C)c1NC1CCN(c2ccc(F)cc2C#N)CC1` (centres unmarked) [I-144, 4-(3-{[1-(2-cyano-4-fluorophenyl)piperidin-4-yl]amino}-2,4,6-trimethyl-benzoyl)-1-(4-fluorophenyl) piperazine-2-carboxamide]: the IC50 in experiment [1] was 10 to 1000 nM; in experiment [2], > 10000 nM.

Take `Cc1cc(C)c(C(=O)N2CCN(c3ccccc3)[C@H](CO)C2)c(C)c1NC1CCN(c2ccc(F)cn2)CC1` [I-145, [(2S)-4-(3-{[1-(5-fluoropyridin-2-yl)piperidin-4-yl]amino}-2,4,6-trimethyl-benzoyl)-1-phenyl-piperazin-2-yl]MeOH]: the IC50 was 10 to 1000 nM in experiment [1] and > 10000 nM in experiment [2].

As for `Cc1cc(C)c(C(=O)N2CCN(c3ccc(F)cn3)[C@H](CO)C2)c(C)c1NC1CCN(c2ccc(F)cn2)CC1` [I-146, [(3S)-4-(5-Fluoro-2-pyridyl)-3-(hydroxymethyl)piperazin-1-yl]-[3-[[1-(5-fluoro-2-pyridyl)-4-piperidyl]amino]-2,4,6-trimethyl-phenyl]methanone], the IC50 in experiment [1] and in experiment [2] was 10 to 1000 nM in each case.

For `Cc1cc(C)c(C(=O)N2CCN(c3ccccn3)[C@H](CO)C2)c(C)c1NC1CCN(c2ccc(F)cn2)CC1` [I-147, [(2S)-4-(3-{[1-(5-Fluoropyridin-2-yl)piperidin-4-yl]amino}-2,4,6-trimethylbenzoyl)-1-(pyridin-2-yl)piperazin-2-yl]methanol], the IC50 in experiment [1] is 10 to 1000 nM; in experiment [2], > 10000 nM.

Regarding `Cc1cc(C)c(C(=O)N2CCN(c3ccc(F)cn3)[C@H](CO)C2)c(C)c1NC1CCN(c2cnccn2)CC1` [I-148, [(3S)-4-(5-Fluoro-2-pyridyl)-3-(hydroxymethyl)piperazin-1-yl]-[2,4,6-trimethyl-3-[(1-pyrazin-2-yl-4-piperidyl)amino]phenyl]methanone], the IC50 in experiment [1] was 10 to 1000 nM; in experiment [2], > 10000 nM.

As for `Cc1cc(C)c(C(=O)N2CCN(c3ccccn3)[C@H](CO)C2)c(C)c1NC1CCN(c2cnccn2)CC1` [I-149, [(2S)-1-(pyridin-2-yl)-4-(2,4,6-trimethyl-3-{[1-(pyrazin-2-yl)piperidin-4-yl]amino}benzoyl)piperazin-2-yl]MeOH], the 50% inhibitory concentration (IC50) in experiment [1] is 10 to 1000 nM; in experiment [2] it was > 10000 nM.

On to `Cc1cc(C)c(C(=O)N2CCN(c3ccccc3)[C@H](C(N)=O)C2)c(C)c1NC1CCN(c2cnccn2)CC1` [I-150, (2S)-1-phenyl-4-(2,4,6-trimethyl-3-{[1-(pyrazin-2-yl)piperidin-4-yl]amino}benzoyl) piperazine-2-carboxamide], for which the IC50 in experiment [1] was 10 to 1000 nM; in experiment [2] it was > 10000 nM.

`Cc1cc(C)c(C(=O)N2CCN(c3ccc(F)cn3)[C@H](CO)C2)c(C)c1NC1CCN(c2ncccn2)CC1` [I-151, [(2S)-1-(5-Fluoropyridin-2-yl)-4-(2,4,6-trimethyl-3-{[1-(pyrimidin-2-yl)piperidin-4-yl]amino}benzoyl)piperazin-2-yl]methanol]: the IC50 in experiment [1] was 10 to 1000 nM; in experiment [2], > 10000 nM.

`Cc1cc(C)c(C(=O)N2CCN(c3ccccc3)[C@@H](C(N)=O)C2)c(C)c1NC1CCN(c2cnccn2)CC1` [I-152, (2R)-1-phenyl-4-(2,4,6-trimethyl-3-{[1-(pyrazin-2-yl)piperidin-4-yl]amino}benzoyl) piperazine-2-carboxamide]: the IC50 in experiment [1] and in experiment [2] was > 10000 nM each time.

On to `Cc1nc(C)c(C(=O)N2CCN(c3ccccc3)[C@H](CO)C2)c(C)c1NC1CCN(c2c(F)cccc2C#N)CC1` [I-153, 3-fluoro-2-[4-({5-[(3S)-3-(hydroxy-methyl)-4-phenyl-piperazine-1-carbonyl]-2,4,6-trimethyl-pyridin-3-yl}amino)piperidin-1-yl] benzonitrile], for which the IC50 in experiment [1] is 10 to 1000 nM; in experiment [2], > 10000 nM.

As for `Cc1nc(C)c(C(=O)N2CCN(c3ccccc3)[C@H](CO)C2)c(C)c1NC1CCN(c2ccc(F)cc2C#N)CC1` [I-154, 5-fluoro-2-[4-({5-[(3S)-3-(hydroxy-methyl)-4-phenyl-piperazine-1-carbonyl]-2,4,6-trimethyl-pyridin-3-yl}amino)piperidin-1-yl] benzonitrile], the results for the IC50 in experiment [1] and in experiment [2] were 1000 to 3000 nM and > 10000 nM, respectively.

Turning to `Cc1nc(C)c(C(=O)N2CCN(c3ccccc3)[C@H](CO)C2)c(C)c1NC1CCN(c2ccccn2)CC1` [I-155, [(2S)-1-phenyl-4-(2,4,6-trimethyl-5-{[1-(pyridin-2-yl)piperidin-4-yl]amino}pyridine-3-carbonyl)piperazin-2-yl]MeOH], the IC50 in experiment [1] is 1000 to 3000 nM; in experiment [2], > 10000 nM.

As to `Cc1cc(C)c(C(=O)N2CCN(c3ccccn3)[C@H](CO)C2)c(C)c1NC1CCN(c2ccccn2)CC1` [I-156, [(2S)-1-(pyridin-2-yl)-4-(2,4,6-trimethyl-3-{[1-(pyridin-2-yl)piperidin-4-yl]amino}benzoyl)piperazin-2-yl]MeOH], the 50% inhibitory concentration (IC50) in experiment [1] was 10 to 1000 nM; in experiment [2], > 10000 nM.

`Cc1cc(C)c(C(=O)N2CCN(c3cccnn3)[C@H](CO)C2)c(C)c1NC1CCN(c2ccccn2)CC1` [I-157, [(2S)-1-(pyridazin-3-yl)-4-(2,4,6-trimethyl-3-{[1-(pyridin-2-yl)piperidin-4-yl]amino}benzoyl)piperazin-2-yl]MeOH]: the IC50 was 10 to 1000 nM in experiment [1] and > 10000 nM in experiment [2].

Take `Cc1cc(C)c(C(=O)N2CCN(c3ccccc3)[C@H](CO)C2)c(C)c1NC1CCN(c2cccnn2)CC1` [I-158, [(2S)-1-phenyl-4-(2,4,6-trimethyl-3-{[1-(pyridazin-3-yl)piperidin-4-yl]amino}benzoyl)piperazin-2-yl]MeOH]: the IC50 in experiment [1] is 10 to 1000 nM; in experiment [2], > 10000 nM.

In the case of `Cc1cc(C)c(C(=O)N2CCN(c3cccnn3)[C@H](CO)C2)c(C)c1NC1CCN(c2cccnn2)CC1` [I-160, [(2S)-1-(pyridazin-3-yl)-4-(2,4,6-trimethyl-3-{[1-(pyridazin-3-yl)piperidin-4-yl]amino}benzoyl)piperazin-2-yl]MeOH], the results for the IC50 in experiment [1] and in experiment [2] were 1000 to 3000 nM and > 10000 nM, respectively.

In the case of `Cc1cc(C)c(C(=O)N2CCN(c3ccc(F)cn3)[C@H](CO)C2)c(C)c1NC1CCN(c2cccnn2)CC1` [I-161, [(2S)-1-(5-fluoropyridin-2-yl)-4-(2,4,6-trimethyl-3-{[1-(pyridazin-3-yl)piperidin-4-yl]amino}benzoyl)piperazin-2-yl]MeOH], the IC50 in experiment [1] is 10 to 1000 nM; in experiment [2], > 10000 nM.

Turning to `Cc1cc(C)c(C(=O)N2CCN(c3ccc(F)cc3)C(C(N)=O)C2)c(C)c1NC1CCN(c2cccnn2)CC1` (centres unmarked) [I-162, 1-(4-fluorophenyl)-4-(2,4,6-trimethyl-3-{[1-(pyridazin-3-yl)piperidin-4-yl]amino}benzoyl) piperazine-2-carboxamide], the figures for the half-inhibitory concentration (IC50) in experiment [1] and in experiment [2] were 10 to 1000 nM and > 10000 nM, respectively.

On to `Cc1cc(C)c(C(=O)N2CCN(c3ccccc3)[C@H](C(N)=O)C2)c(C)c1NC1CCN(c2cccnn2)CC1` [I-164, (2S)-1-Phenyl-4-(2,4,6-trimethyl-3-{[1-(pyridazin-3-yl)piperidin-4-yl]amino}benzoyl)piperazine-2-carboxamide], for which the IC50 was 10 to 1000 nM in experiment [1] and > 10000 nM in experiment [2].
